Reference: patent publication US10683273B2, “Compounds as DNA probes, methods and applications thereof” (JAWAHARLAL NEHRU CENTRE FOR ADVANCED SCIENTIFIC RESEARCH, priority 2015, dated 2020)
Where two headings read alike, the source gives them in different places.

Tests used:
MCF-7 cells [1] = assay: Photostability assay by confocal fluorescence microscopy; type: cell-based; details: 2 μM
Description: MCF-7 Cells are propagated on 20 mm cover slips in a 6-well plate in DMEM medium supplemented with 10% fetal bovine serum at about 37° C. in a humidified atmosphere containing 5% CO2 till 80% confluency is achieved. Cells are incubated for a duration of about 60 min with probe QCy-DT (resuspended in Mili-Q water) at 2 μM concentration in a humidified CO2 incubator at about 37° C. Following treatment, the photostability of QCy-DT is measured by continuous scanning using OLYMPUS FV1000 confocal fluorescence microscope, under 568 nm line of an Argon ion laser for different time durations of about 10 sec, 120 sec and 300 sec. Olympus Fluoview software is used to quantitatively investigate the intensity of signals of QCy-DT at zero time points and after photo bleaching. The data is plotted with mean and standard error.

MCF-7 cells [2] = assay: Cell viability assay (MTT); type: cell-based; details: MCF-7, up to 8 μM, about 72 hours
Description: MCF-7 cells (4×10^3 cells/well) are seeded in 96-well plate (flat bottom) and cultured for 12 hours. Following this, cells are treated with […] of probe QCy-DT respectively for about 72 hours and further incubated in a humidified CO2 incubator at about 37° C. 20 μL of MTT (5 mg/mL in PBS) solution is added to each well and incubated for about 4 hours at about 37° C. in the CO2 incubator. DMSO (200 μL) is then added to each well. After about 1 hour, absorbance is taken in ELISA microplate reader at 570 nm wavelength.
Following formula is applied for the calculation of percentage of cell viability (CV): CV=(absorbance of the experimental samples/absorbance of the control sample)×100
The data is normalized with control and plotted with mean and standard error.

HeLa cells = assay: Fluorescence study in fixed cells; type: cell-based; details: 0.5 and 1 μM, Hoechst as control
Description: HeLa cells are grown on the cover slip for about 24 hours in DMEM medium supplemented with 10% fetal bovine serum at about 37° C. in a humidified atmosphere containing 5% CO2 till 80% confluency is achieved. Then cells are fixed with 4% paraformaldehyde in PBS for 10 min. After rinsing twice with PBS, HeLa cells are treated separately with probe QCy-DT at various concentrations (0.5 μM and 1 μM) for 10 min at room temperature. Subsequently, cover slips are incubated with Hoechst 33258 at 10 μg/mL for nuclear staining. Fluorescence images are taken by Carl Zeiss Laser Scanning Microscope (LSM510 META).
In order to check its permeability, cellular uptake studies are carried out in live and fixed conditions of MCF-7 and HeLa cells, respectively. First, MCF-7 cells are incubated with probe QCy-DT (0.5 and 1 μM) without fixing, and live cell imaging is conducted using Carl Zeiss fluorescence microscope as described above. […] Next, HeLa cells are fixed and incubated with QCy-DT (0.5 and 1 μM) along with Hoechst as the control nuclear staining dye. […] Therefore, staining results obtained with live and fixed cells confirmed high cell permeability, efficiency (low staining concentration of 1 μM), and preferential targeting of cell nuclear DNA.

P. falciparum = assay: IC50 determination in malaria parasites; type: cell-based, Plasmodium falciparum; details: for IC50: Plasmodium falciparum
Description: P. falciparum strain 3D7 is cultured. Briefly, malaria parasites are cultured in human erythrocytes in T75 flasks with RPMI 1640 (Gibco) supplemented with 10 μg/mL gentamicin (Sigma), 50 μg/mL ampicillin, 0.2% NaHCO3 (Sigma), 0.5% albumax (Invitrogen) and Hypoxanthine (27 mg/L). The culture is maintained under standard conditions (37° C. in 90% nitrogen, 5% CO2, and 5% O2). For synchronization of the parasites, ring-staged parasites are treated with 5% sorbitol at 37° C. for about 5-10 min, followed by washing with pre-warmed incomplete medium twice, and placed back in complete medium. QCy-DT probe (resuspended in Mili-Q water) is added to parasites (25±2 hpi) at a final concentration of 0.5 μM and the parasites are incubated for 30 min at 37° C. Following treatment fluorescence imaging of the parasites is performed using Carl Zeiss AXIO Imager Z1 and the software used for image capturing was AxioVision Rel. 4.8. To determine the IC50 value of QCy-DT against P. falciparum, parasites are synchronized in ring stage (˜12±2 h) and parasitemia is maintained at ˜1%, followed by treatment with 0, 0.5, 1, 2 and 4 μM of QCy-DT at early trophozoite stage (˜20±2 h). After about 40 hours of the QCy-DT treatment, Geimsa stained slides are prepared, and parasitemia is counted. At least six homogenous microscopic fields are counted for each treatment, and each experiment is done in triplicates. The graphs are plotted for the percentage of parasitemia (at 0 time point and at 40 hours after incubation with QCy-DT) against QCy-DT concentration, with mean and standard error.

- remainder fluorescence intensity (MCF-7 cells [1]; MCF-7, 120-second argon ion laser excitation at 568 nm): ~80%
- fluorescent signal intensity (MCF-7 cells [1]; MCF-7, 300 sec excitation at 568 nm): ~50%
- IC50 (P. falciparum; against malarial parasites, as printed in the description, read-out: inhibitory concentration (IC50)): < 4 µM
- IC50 (P. falciparum; early trophozoite stage, 40 h treatment, parasitemia count, read-out: IC50): < 4 µM
Compound: C[n+]1c(/C=C/c2ccc(O)c(/C=C/c3sc4ccccc4[n+]3C)c2)sc2ccccc21 [QCy-DT, quinone cyanine-dithiazole]
- cell viability (MCF-7 cells [2]): > 76%
- nuclear staining (HeLa cells): selective staining of the cell nucleus, and remarkable co-localization with Hoechst dye
- parasite stage progression (P. falciparum; 8 μM): arrested in the trophozoite stage
